According to patent publication US8772266B2, “Fungicide pyrazole carboxamides derivates” (Bayer Cropscience AG, priority 2009, dated 2014):

system: Sphaerotheca fuliginea; experiment: In vivo preventive test on Sphaerotheca fuliginea (cucumber), Example G; details: 10 ppm of active ingredient, evaluated 7 days after inoculation
Source text: After the spray coating has dried on, the plants are inoculated with an aqueous spore suspension of Sphaerotheca fuliginea.

| SMILES | disease control [%] |
| --- | --- |
| Cn1nc(C(F)F)c(C(=O)N(Cc2c(F)cccc2C2CCCC2)C2CC2)c1F [Example 137] | 100 |
| Cn1nc(C(F)F)c(C(=O)N(C2CC2)C2CCC(C)(C)c3ccccc32)c1F (centres unmarked) [Example 99] | 100 |
| CC(C)Cc1ccc(F)c(F)c1CN(C(=O)c1c(C(F)F)nn(C)c1F)C1CC1 [Example 112] | 100 |
| Cn1nc(C(F)F)c(C(=O)N(Cc2c(C(F)(F)F)ccc(F)c2F)C2CC2)c1F [Example 68] | 100 |
| CC(C)Cc1ccc(Cl)cc1CN(C(=O)c1c(C(F)F)nn(C)c1F)C1CC1 [Example 120] | 100 |
| CC(c1cccc2c1CCC(C)(C)C2)N(C(=O)c1c(C(F)F)nn(C)c1F)C1CC1 (single isomer, unassigned) [Example 44a] | 100 |
| Cn1nc(C(F)F)c(C(=O)N(Cc2c(Cl)cccc2C2CCCC2)C2CC2)c1F [Example 141] | 100 |
| CCCCc1ccc(F)cc1CN(C(=O)c1c(C(F)F)nn(C)c1F)C1CC1 [Example 121] | 100 |
| Cn1nc(C(F)F)c(C(=O)N(Cc2c(C(F)(F)F)ccc(F)c2C(F)(F)F)C2CC2)c1F [Example 117] | 100 |
| CCCCc1ccc(Cl)cc1CN(C(=O)c1c(C(F)F)nn(C)c1F)C1CC1 [Example 119] | 100 |
| Cn1nc(C(F)F)c(C(=O)N(Cc2cc(F)ccc2C2CC2)C2CC2)c1F [Example 123] | 100 |
| CCCCc1cccc(Cl)c1CN(C(=O)c1c(C(F)F)nn(C)c1F)C1CC1 [Example 115] | 100 |
| CC(C)Cc1cccc(F)c1CN(C(=O)c1c(C(F)F)nn(C)c1F)C1CC1 [Example 127] | 100 |
| CCCCc1cccc(F)c1CN(C(=O)c1c(C(F)F)nn(C)c1F)C1CC1 [Example 128] | 100 |
| Cn1nc(C(F)F)c(C(=O)N(Cc2c(F)cccc2C2CC2)C2CC2)c1F [Example 130] | 100 |
| CC(C)c1ccc(F)c(F)c1CN(C(=O)c1c(C(F)F)nn(C)c1F)C1CC1 [Example 136] | 100 |
| CC(C)c1ccccc1CN(C(=O)c1c(C(F)F)nn(C)c1F)C1CC1C (centres unmarked) [Example 157] | 100 |
| Cn1nc(C(F)F)c(C(=O)N(Cc2cc(F)ccc2C2CCCC2)C2CC2)c1F [Example 138] | 100 |
| Cn1nc(C(F)F)c(C(=O)N(Cc2cc(F)ccc2[Si](C)(C)C)C2CC2)c1F [Example 118] | 100 |
| CCc1cccc(Cl)c1CN(C(=O)c1c(C(F)F)nn(C)c1F)C1CC1 [Example 124] | 100 |
| CC(C)c1ccc(F)cc1CN(C(=O)c1c(C(F)F)nn(C)c1F)C1CC1 [Example 135] | 100 |
| Cn1nc(C(F)F)c(C(=O)N(Cc2c(Cl)cccc2C2CC2)C2CC2)c1F [Example 113] | 100 |
| Cn1nc(C(F)F)c(C(=O)N(Cc2c(Cl)cccc2[Si](C)(C)C)C2CC2)c1F [Example 116] | 100 |
| CCCCc1ccc(F)c(F)c1CN(C(=O)c1c(C(F)F)nn(C)c1F)C1CC1 [Example 126] | 100 |
| Cn1nc(C(F)F)c(C(=O)N(Cc2c(C3CCCC3)ccc(F)c2F)C2CC2)c1F [Example 139] | 100 |

system: not listed separately; experiment: logP by HPLC on reversed-phase column (EEC Directive 79/831 Annex V.A8); details: HPLC on reversed-phase column (C 18), 40° C., 0.1% aqueous formic acid and acetonitrile, linear gradient 10% to 90% acetonitrile

| SMILES | logP |
| --- | --- |
| CCCCC1Cc2ccccc2C1N(C(=O)c1c(C(F)F)nn(C)c1F)C1CC1 (centres unmarked) [Example 100] | 4.85 |
| Cn1nc(C(F)F)c(C(=O)N(Cc2cc(Cl)ccc2C2CCCC2)C2CC2)c1Cl [Example 152] | 4.92 |
| Cn1nc(C(F)F)c(C(=O)N(Cc2c(Cl)cccc2[Si](C)(C)C)C2CC2)c1Cl [Example 151] | 4.82 |
| CC(C)Cc1cccc(Cl)c1CN(C(=O)c1c(C(F)F)nn(C)c1Cl)C1CC1 [Example 150] | 4.74 |
| CC(c1cccc(I)c1)N(C(=O)c1c(C(F)F)nn(C)c1F)C1CC1 (centres unmarked) [Example 103] | 3.76 |
| Cc1cccc2c1CCC2N(C(=O)c1c(C(F)F)nn(C)c1F)C1CC1 (racemic) [Example 102] | 3.55 |
| Cn1nc(C(F)F)c(C(=O)N(C2CC2)C2CCc3cccc(Cl)c32)c1F (centres unmarked) [Example 109] | 3.42 |
| CC(c1cc(Br)cc(Br)c1)N(C(=O)c1c(C(F)F)nn(C)c1F)C1CC1 (racemic) [Example 106] | 4.26 |

Results, then the molecule that gave them:

| logP | SMILES |
| --- | --- |
| 4.25 | Cn1nc(C(F)F)c(C(=O)N(Cc2ccccc2C2CC2C2CC2)C2CC2)c1F (centres unmarked) [Example 155] |
| 4.82 | CC(C)CC(C)c1ccccc1CN(C(=O)c1c(C(F)F)nn(C)c1F)C1CC1 (centres unmarked) [Example 154] |
| 3.31 | Cc1cccc(C)c1CN(C(=O)c1c(C(F)F)nn(C)c1F)C1CC1 [Example 108] |
| 3.99 | Cn1nc(C(F)F)c(C(=O)N(Cc2c(Cl)cc(Cl)cc2Cl)C2CC2)c1F [Example 107] |
| 3.64 | Cn1nc(C(F)F)c(C(=O)N(Cc2cccc(C(F)(F)F)c2Cl)C2CC2)c1F [Example 104] |
| 4.06 | CCc1ccccc1CN(C(=S)c1c(C(F)F)nn(C)c1F)C1CC1 [Example 133] |
| 4.06 | CCC(C)c1ccccc1CN(C(=O)c1c(C(F)F)nn(C)c1F)C1CC1 (centres unmarked) [Example 156] |
| 3.85 | Cn1nc(C(F)F)c(C(=O)N(Cc2ccccc2Oc2ccc(F)cc2)C2CC2)c1F [Example 110] |
| 3.92 | CC(C)c1ccc(F)cc1CN(C(=O)c1c(C(F)F)nn(C)c1Cl)C1CC1 [Example 146] |

same assay, conditions: HPLC, reversed-phase column (C 18), 40° C., 0.1% aqueous formic acid and acetonitrile, linear gradient 10% to 90% acetonitrile

| SMILES | logP |
| --- | --- |
| Cn1nc(C(F)F)c(C(=S)N(Cc2ncc(C(F)(F)F)cc2Cl)C2CC2)c1F [Example 7] | 4.11 |
| Cn1nc(C(F)F)c(C(=O)N(Cc2c(Cl)cccc2I)C2CC2)c1F [Example 19] | 3.58 |
| Cn1nc(C(F)F)c(C(=O)N(Cc2ccccc2C(F)(F)F)C2CC2)c1Cl [Example 56] | 3.58 |
| Cn1nc(C(F)F)c(C(=O)N(C2CC2)C2CCC(C)(C)c3ccccc32)c1F (centres unmarked) [Example 99] | 4.16 |
| CCCCC(c1ccc(C(F)(F)F)cc1)N(C(=O)c1c(C(F)F)nn(C)c1F)C1CC1 (centres unmarked) [Example 93] | 4.8 |
| CC(c1ccc(Oc2ccccc2)cc1)N(C(=O)c1c(C(F)F)nn(C)c1Cl)C1CC1 (centres unmarked) [Example 60] | 4.31 |
| CC(c1ncc(Cl)cc1Cl)N(C(=O)c1c(C(F)F)nn(C)c1Cl)C1CC1 (centres unmarked) [Example 58] | 3.69 |
| Cc1cc(C)c2c(c1)C(N(C(=O)c1c(C(F)F)nn(C)c1F)C1CC1)CCC2 (centres unmarked) [Example 74] | 4.25 |
| Cn1nc(C(F)F)c(C(=O)N(C2CC2)C2CCCc3cccc(Br)c32)c1F (centres unmarked) [Example 97] | 3.78 |
| Cn1nc(C(F)F)c(C(=O)N(Cc2ncc(C(F)(F)F)cc2Cl)C2CC2)c1Cl [Example 57] | 3.55 |
| CC(C)c1ccccc1CN(C(=O)c1c(C(F)F)nn(C)c1Cl)C1CC1 [Example 34] | 3.81 |
| CC(c1ccc(Oc2ccccc2)cc1)N(C(=O)c1c(C(F)F)nn(C)c1F)C1CC1 (centres unmarked) [Example 65] | 4.14 |
| CCC(c1ccc(Cl)cc1Cl)N(C(=O)c1c(C(F)F)nn(C)c1F)C1CC1 (centres unmarked) [Example 69] | 4.2 |
| CC(c1cc(C(F)(F)F)ccc1Cl)N(C(=O)c1c(C(F)F)nn(C)c1F)C1CC1 (centres unmarked) [Example 96] | 3.89 |
| CCC(c1cc(Cl)cc(Cl)c1)N(C(=O)c1c(C(F)F)nn(C)c1F)C1CC1 (centres unmarked) [Example 71] | 4.41 |
| CC(c1ccccc1C(F)(F)F)N(C(=O)c1c(C(F)F)nn(C)c1Cl)C1CC1 (centres unmarked) [Example 55] | 3.64 |
| CC(C)Cc1cc(Cl)ccc1CN(C(=O)c1c(C(F)F)nn(C)c1F)C1CC1 [Example 31] | 4.59 |
| Cn1nc(C(F)F)c(C(=O)N(Cc2cc(Br)ccc2I)C2CC2)c1F [Example 21] | 3.94 |
| Cn1nc(C(F)F)c(C(=O)N(Cc2ccc(Cl)cc2Cl)C2CC2)c1Cl [Example 59] | 3.89 |
| CC(c1ccccc1C(F)(F)F)N(C(=O)c1c(C(F)F)nn(C)c1F)C1CC1 (centres unmarked) [Example 66] | 3.42 |
| Cn1nc(C(F)F)c(C(=O)N(Cc2ccccc2I)C2CC2)c1Cl [Example 35] | 3.6 |

Results, then the molecule that gave them:

| logP | SMILES |
| --- | --- |
| 3.87 | Cn1nc(C(F)F)c(C(=O)N(C2CC2)C2CC(C)(C)c3ccccc32)c1F (centres unmarked) [Example 85] |
| 4.15 | CC(c1cccc(C(F)(F)c2ccccc2)c1)N(C(=O)c1c(C(F)F)nn(C)c1F)C1CC1 (centres unmarked) [Example 78] |
| 4.26 | CCCCC(c1ccccc1)N(C(=O)c1c(C(F)F)nn(C)c1F)C1CC1 (centres unmarked) [Example 94] |
| 3.51 | Cn1nc(C(F)F)c(C(=O)N(Cc2c(Br)cccc2Br)C2CC2)c1F [Example 92] |
| 3.85 | Cc1cc(Cl)c(CN(C(=O)c2c(C(F)F)nn(C)c2F)C2CC2)cc1C [Example 79] |
| 3.31 | Cn1nc(C(F)F)c(C(=O)N(Cc2c(C(F)(F)F)ccc(F)c2F)C2CC2)c1F [Example 68] |
| 4.01 | CCc1cccc(CC)c1CN(C(=O)c1c(C(F)F)nn(C)c1F)C1CC1 [Example 88] |
| 4.23 | CC(c1ccc(C(F)(F)c2ccccc2)cc1)N(C(=O)c1c(C(F)F)nn(C)c1F)C1CC1 (centres unmarked) [Example 77] |
| 3.73 | Cc1cc(Br)c(CN(C(=O)c2c(C(F)F)nn(C)c2F)C2CC2)cc1F [Example 75] |
| 4.49 | Cn1nc(C(F)F)c(C(=O)N(Cc2ccccc2[Si](C)(C)C)C2CC2)c1Cl [Example 37] |
| 3.6 | CC(c1ccccc1OC(F)(F)F)N(C(=O)c1c(C(F)F)nn(C)c1F)C1CC1 (centres unmarked) [Example 91] |
| 3.94 | Cn1nc(C(F)F)c(C(=O)N(Cc2cccc(-c3ccccc3)c2)C2CC2)c1Cl [Example 67] |
| 4.06 | Cn1nc(C(F)F)c(C(=O)N(Cc2ccccc2C(C)(C)C)C2CC2)c1F [Example 76] |
| 2.84 | Cn1nc(C(F)F)c(C(=O)N(C2CC2)C2CCOc3ccccc32)c1F (centres unmarked) [Example 86] |
| 3.44 | Cn1nc(C(F)F)c(C(=O)N(Cc2cc(Br)c3c(c2Br)OCO3)C2CC2)c1F [Example 87] |
| 3.31 | CC(c1ccccc1Br)N(C(=O)c1c(C(F)F)nn(C)c1F)C1CC1 (centres unmarked) [Example 98] |
| 3.06 | CC(c1ccccc1)N(C(=O)c1c(C(F)F)nn(C)c1F)C1CC1 (centres unmarked) [Example 95] |
